Results taken from ChEMBL document CHEMBL6078624, “Structure-based discovery of a 4,5-Dihydropyrazole-cored PET ligand for imaging of receptor-interacting serine/threonine-protein kinase 1 (RIPK1) in the brain” (Eur J Med Chem, 2024).

What was measured:
[1] = Stability of compound in saline at 37 degreeC incubated for 6 hrs by HPLC analysis; assay type: physicochemical; conditions: buffer
[2] = Drug uptake in male rat white matter region at 5 microCi/ml incubated for 30 mins by phosphor imager analysis; assay type: ADME, tissue-based, Brain white matter; conditions: 0.5 h
[3] = Drug uptake in male mouse cerebellum at 5 microCi/ml incubated for 30 mins by phosphor imager analysis; assay type: ADME, tissue-based; conditions: 0.5 h
[4] = Drug uptake in male mouse midbrain at 5 microCi/ml incubated for 30 mins by phosphor imager analysis; assay type: ADME, tissue-based; conditions: 0.5 h
[5] = Drug uptake in male mouse thalamus at 5 microCi/ml incubated for 30 mins by phosphor imager analysis; assay type: ADME, tissue-based; conditions: 0.5 h
[6] = Drug uptake in male Sprague-Dawley rat brain at 12.6 to 18.6 MBq, iv administered into tail vein measured at 1.5 mins post-injection by PET/CT imaging analysis; assay type: ADME, organism-based; conditions: in vivo, 0.025 h, dose 12.6-18.6 MBq
[7] = Drug uptake in male Sprague-Dawley rat brain at 12.6 to 18.6 MBq, iv administered into tail vein measured after rapid washout by PET/CT imaging analysis; assay type: ADME, organism-based; conditions: in vivo, dose 12.6-18.6 MBq
[8] = Biodistribution in male ICR mouse brain at 0.74 MBq, iv administered into tail vein measured at 60 mins post-injection by automatic gamma counter analysis; assay type: ADME, organism-based; conditions: in vivo, 1 h
[9] = Biodistribution in male ICR mouse blood at 0.74 MBq, iv administered into tail vein measured at 10 mins post-injection by automatic gamma counter analysis; assay type: ADME, organism-based; conditions: in vivo
[10] = Biodistribution in male ICR mouse blood at 0.74 MBq, iv administered into tail vein measured at 60 mins post-injection by automatic gamma counter analysis; assay type: ADME, organism-based; conditions: in vivo, 1 h
[11] = Biodistribution in male ICR mouse bone at 0.74 MBq, iv administered into tail vein measured at 30 mins post-injection by automatic gamma counter analysis; assay type: ADME, organism-based, Bone element; conditions: in vivo, 0.5 h
[12] = Biodistribution in male ICR mouse liver at 0.74 MBq, iv administered into tail vein by automatic gamma counter analysis; assay type: ADME, organism-based; conditions: in vivo
[13] = Biodistribution in male ICR mouse small intestine at 0.74 MBq, iv administered into tail vein measured at 60 mins post-injection by automatic gamma counter analysis; assay type: ADME, organism-based; conditions: in vivo, 1 h
[14] = Biodistribution in male ICR mouse brain at 0.74 MBq, iv administered into tail vein measured at 30 mins post-injection by automatic gamma counter analysis; assay type: ADME, organism-based; conditions: in vivo, 0.5 h
[15] = Biodistribution in male ICR mouse blood at 0.74 MBq, iv administered into tail vein measured at 30 mins post-injection by automatic gamma counter analysis; assay type: ADME, organism-based; conditions: in vivo, 0.5 h
[16] = Biodistribution in male ICR mouse blood at 0.74 MBq, iv administered into tail vein measured at 2 mins post-injection by automatic gamma counter analysis; assay type: ADME, organism-based; conditions: in vivo
[17] = Biodistribution in male ICR mouse bone at 0.74 MBq, iv administered into tail vein measured at 10 mins post-injection by automatic gamma counter analysis; assay type: ADME, organism-based, Bone element; conditions: in vivo
[18] = Biodistribution in male ICR mouse bone at 0.74 MBq, iv administered into tail vein measured at 2 mins post-injection by automatic gamma counter analysis; assay type: ADME, organism-based, Bone element; conditions: in vivo
[19] = Biodistribution in male ICR mouse lungs at 0.74 MBq, iv administered into tail vein measured at 60 mins post-injection by automatic gamma counter analysis; assay type: ADME, organism-based, Lung; conditions: in vivo, 1 h
[20] = Biodistribution in male ICR mouse kidneys at 0.74 MBq, iv administered into tail vein measured at 60 mins post-injection by automatic gamma counter analysis; assay type: ADME, organism-based, Kidney; conditions: in vivo, 1 h
[21] = Biodistribution in male ICR mouse pancreas at 0.74 MBq, iv administered into tail vein measured at 60 mins post-injection by automatic gamma counter analysis; assay type: ADME, organism-based; conditions: in vivo, 1 h
[22] = Biodistribution in male ICR mouse brain at 0.74 MBq, iv administered into tail vein pre-treated with GSK'547 by automatic gamma counter analysis; assay type: ADME, organism-based; conditions: in vivo
[23] = Biodistribution in male ICR mouse blood at 0.74 MBq, iv administered into tail vein pre-treated with GSK'547 followed by compound addition by automatic gamma counter analysis relative to baseline; assay type: ADME, organism-based; conditions: in vivo
[24] = Biodistribution in male ICR mouse blood at 0.74 MBq, iv administered into tail vein pre-treated with WL8 followed by compound addition by automatic gamma counter analysis relative to baseline; assay type: ADME, organism-based; conditions: in vivo
[25] = Biodistribution in male ICR mouse heart at 0.74 MBq, iv administered into tail vein pre-treated with WL8 followed by compound addition by automatic gamma counter analysis relative to baseline; assay type: ADME, organism-based; conditions: in vivo
[26] = Biodistribution in male ICR mouse liver at 0.74 MBq, iv administered into tail vein pre-treated with GSK'547 followed by compound addition by automatic gamma counter analysis relative to baseline; assay type: ADME, organism-based; conditions: in vivo
[27] = Biodistribution in male ICR mouse spleen at 0.74 MBq, iv administered into tail vein pre-treated with GSK'547 followed by compound addition by automatic gamma counter analysis relative to baseline; assay type: ADME, organism-based; conditions: in vivo
[28] = Biodistribution in male ICR mouse lung at 0.74 MBq, iv administered into tail vein pre-treated with GSK'547 followed by compound addition by automatic gamma counter analysis relative to baseline; assay type: ADME, organism-based; conditions: in vivo
[29] = Biodistribution in male ICR mouse lung at 0.74 MBq, iv administered into tail vein pre-treated with WL8 followed by compound addition by automatic gamma counter analysis relative to baseline; assay type: ADME, organism-based; conditions: in vivo
[30] = Biodistribution in male ICR mouse kidney at 0.74 MBq, iv administered into tail vein pre-treated with WL8 followed by compound addition by automatic gamma counter analysis relative to baseline; assay type: ADME, organism-based; conditions: in vivo
[31] = Biodistribution in male ICR mouse pancreas at 0.74 MBq, iv administered into tail vein pre-treated with GSK'547 followed by compound addition by automatic gamma counter analysis relative to baseline; assay type: ADME, organism-based; conditions: in vivo
[32] = Biodistribution in male ICR mouse pancreas at 0.74 MBq, iv administered into tail vein pre-treated with WL8 followed by compound addition by automatic gamma counter analysis relative to baseline; assay type: ADME, organism-based; conditions: in vivo
[33] = Biodistribution in male ICR mouse muscle tissue at 0.74 MBq, iv administered into tail vein pre-treated with WL8 followed by compound addition by automatic gamma counter analysis relative to baseline; assay type: ADME, organism-based; conditions: in vivo
[34] = Biodistribution in male ICR mouse bone at 0.74 MBq, iv administered into tail vein pre-treated with WL8 followed by compound addition by automatic gamma counter analysis relative to baseline; assay type: ADME, organism-based, Bone element; conditions: in vivo
[35] = Biodistribution in male ICR mouse stomach at 0.74 MBq, iv administered into tail vein pre-treated with GSK'547 followed by compound addition by automatic gamma counter analysis relative to baseline; assay type: ADME, organism-based; conditions: in vivo
[36] = Biodistribution in male ICR mouse stomach at 0.74 MBq, iv administered into tail vein pre-treated with WL8 followed by compound addition by automatic gamma counter analysis relative to baseline; assay type: ADME, organism-based; conditions: in vivo
[37] = Biodistribution in male ICR mouse small intestine at 0.74 MBq, iv administered into tail vein pre-treated with WL8 followed by compound addition by automatic gamma counter analysis relative to baseline; assay type: ADME, organism-based; conditions: in vivo
[38] = Biodistribution in male ICR mouse small intestine at 0.74 MBq, iv administered into tail vein pre-treated with GSK'547 followed by compound addition by automatic gamma counter analysis; assay type: ADME, organism-based; conditions: in vivo
[39] = Drug degradation in male mouse plasma assessed as parent compound remaining at 26.6 MBq by radio-HPLC analysis; assay type: ADME, cell-free

SMILES: Cc1ccc(C2CC=NN2C(=O)C2CCN(C(=O)c3cccc([18F])n3)CC2)cc1F (centres undefined)
- Stability [1]: Stable
- Drug uptake [2]: Active
- Drug uptake [3]: Active
- Drug uptake [4]: Active
- Drug uptake [5]: Active
- SUVmax [6]: 0.81
- SUV [7]: 0.12
- Drug uptake [8]: 0.14 % ID/g
- Drug uptake [9]: 5.32 % ID/g
- Drug uptake [10]: 0.97 % ID/g
- Drug uptake [11]: 7.94 % ID/g
- Drug uptake [12]: > 6.5 % ID/g
- Drug uptake [13]: 20.75 % ID/g
- Drug uptake [14]: 0.36 % ID/g
- Drug uptake [15]: 2.55 % ID/g
- Drug uptake [16]: 4.57 % ID/g
- Drug uptake [17]: 3.6 % ID/g
- Drug uptake [18]: 3.09 % ID/g
- Drug uptake [19]: < 4 % ID/g
- Drug uptake [20]: < 4 % ID/g
- Drug uptake [21]: < 4 % ID/g
- Drug uptake [22]: 91%
- Drug uptake [23]: Active
- Drug uptake [24]: Active
- Drug uptake [25]: Active
- Drug uptake [26]: Active
- Drug uptake [27]: Active
- Drug uptake [28]: Active
- Drug uptake [29]: Active
- Drug uptake [30]: Active
- Drug uptake [31]: Active
- Drug uptake [32]: Active
- Drug uptake [33]: Active
- Drug uptake [34]: Not_active
- Drug uptake [35]: Active
- Drug uptake [36]: Active
- Drug uptake [37]: Not_active
- Drug uptake [38]: > 27%
- Stability [39]: 10.8%
